Counter-ions that a name gives are not always drawn. Like-named read-outs stand apart in the source and are kept apart here.
Key:
human GPR40 [1] = biological target: T1, human GPR40 (Homo sapiens, UniProt O14842)
human GPR40 [2] = biological target: T1, human GPR40; assay: FDSS-based intracellular calcium assay (Human GRP40 in vitro assay); format: cell-based; design: 3xFLAG; expressed in transfected cells; details: cells expressing GPR40, intracellular Ca2+ response, FDSS reader; read-out: hGPR40 EC50
How it was run: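 GPR40-expressing cells, plated overnight in serum-free phenol red-free DMEM, loaded with Fluo-3 in HBSS with 1.7 mM probenecid for 30 min at 37° C. Compounds in DMSO, diluted in assay buffer, added as 3× solutions; intracellular Ca^2+ response read on FDSS.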

T1 sequence (O14842 whole entry): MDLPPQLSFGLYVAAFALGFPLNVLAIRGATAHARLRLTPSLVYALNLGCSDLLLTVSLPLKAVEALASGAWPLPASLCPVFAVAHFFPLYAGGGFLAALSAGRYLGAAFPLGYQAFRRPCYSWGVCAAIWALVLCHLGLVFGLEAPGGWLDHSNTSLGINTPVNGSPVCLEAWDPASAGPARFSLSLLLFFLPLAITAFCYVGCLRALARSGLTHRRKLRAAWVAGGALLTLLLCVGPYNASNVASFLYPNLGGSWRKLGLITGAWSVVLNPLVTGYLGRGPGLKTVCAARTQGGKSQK

Row | SMILES | EC50 (human GPR40 [1]) [nM] | EC50 (human GPR40 [2]) [nM]
1 | COc1ccc(C2CC2)c(N2CCC(Oc3ccc(N4C[C@H](OC)C[C@@H]4CC(=O)O)cc3)CC2)c1 [Example 59, 2-((2R,4R)-1-(4-(1-(2-Cyclopropyl-5-methoxyphenyl)piperidin-4-yloxy)phenyl)-4-methoxypyrrolidin-2-yl)acetic acid, TFA] | 38 | 290
2 | CCOc1ccc(F)c(N2CCC(Oc3ccc(N4CC(C)(OC)C[C@@H]4CC(=O)O)cc3)C(C)C2)c1 (stereo partly drawn) [Example 47, 2-((2R)-1-(4-(((3,4-trans)-1-(5-Ethoxy-2-fluorophenyl)-3-methylpiperidin-4-yl)oxy)phenyl)-4-methoxy-4-methylpyrrolidin-2-yl)acetic acid, HCl] | 18 | 170
3 | CCOc1ccc(F)c(N2CCC(Oc3ccc(N4C[C@H](C(F)(F)F)C[C@@H]4CC(=O)O)cc3)CC2)c1 [Example 85, 2-((2R,4R)-1-(4-((1-(5-Ethoxy-2-fluorophenyl)piperidin-4-yl)oxy)phenyl)-4-(trifluoromethyl)pyrrolidin-2-yl)acetic acid] | 70 | 320
4 | COc1cc(N2CCC(Oc3ccc(N4C[C@H](OC)C[C@@H]4CC(=O)O)c(F)c3)C(C)C2)c(Cl)cn1 (stereo partly drawn) [Example 139, 2-((2R,4R)-1-(4-((3,4-trans)-1-(5-Chloro-2-methoxypyridin-4-yl)-3-methylpiperidin-4-yloxy)-2-fluorophenyl)-4-methoxypyrrolidin-2-yl)acetic acid] | 22 | 230
5 | COc1ccc(CCC(C)(C)C)c(N2CCC(Oc3ccc(N4C[C@H](OC)C[C@@H]4CC(=O)O)cc3)CC2)c1 [Example 62, 2-((2R,4R)-1-(4-(1-(2-(3,3-Dimethylbutyl)-5-methoxyphenyl)piperidin-4-yloxy)phenyl)-4-methoxypyrrolidin-2-yl)acetic acid] | 13 | 89
6 | COc1cc(N2CCC(Oc3ccc(N4C[C@H](OC)C[C@@H]4CC(=O)O)cn3)C(C)C2)c(Cl)cn1 (stereo partly drawn) [Example 132, 2-((2R,4R)-1-(6-(((3,4-trans)-1-(5-Chloro-2-methoxypyridin-4-yl)-3-methylpiperidin-4-yl)oxy)pyridin-3-yl)-4-methoxypyrrolidin-2-yl)acetic acid] | 55 | 250
7 | COc1ccc(F)c(N2CCC(Cc3ccc(N4C[C@H](C(F)(F)F)C[C@@H]4CC(=O)O)cc3)CC2)c1 [Example 16, 2-((2R,4R)-1-(4-((1-(2-Fluoro-5-methoxyphenyl)piperidin-4-yl)methyl)phenyl)-4-(trifluoromethyl)pyrrolidin-2-yl)acetic acid, HCl] | 73 | 530
8 | COc1cc(N2CCC(Oc3ccc(N4C[C@H](OC)C[C@@H]4CC(=O)O)cc3F)C(C)C2)c(Cl)cn1 (stereo partly drawn) [Example 142, 2-((2R,4R)-1-(4-((3,4-trans)-1-(5-Chloro-2-methoxypyridin-4-yl)-3-methylpiperidin-4-yloxy)-3-fluorophenyl)-4-methoxypyrrolidin-2-yl)acetic acid, TFA] | 31 | 270
9 | COc1ccc(F)c(N2CCC(Oc3ccc(N4C[C@H](C(F)(F)F)C[C@@H]4CC(=O)O)cc3)CC2)c1 [Example 1, 2-((2R,4R)-1-(4-((1-(2-Fluoro-5-methoxyphenyl)piperidin-4-yl)oxy)phenyl)-4-(trifluoromethyl)pyrrolidin-2-yl)acetic acid, HCl] | 310 | 210
10 | COc1cc(N2CCC(Oc3ccc(N4C[C@H](C(F)(F)F)C[C@@H]4CC(=O)O)cc3Cl)C(C)C2)c(Cl)cn1 (stereo partly drawn) [Example 136, 2-((2R,4R)-1-(3-Chloro-4-(((3,4-trans)-1-(5-chloro-2-methoxypyridin-4-yl)-3-methylpiperidin-4-yl)oxy)phenyl)-4-(trifluoromethyl)pyrrolidin-2-yl)acetic acid] | – | 500
11 | COc1cc(N2CCC(Oc3ccc(N4C[C@H](OC)[C@@H](C)[C@@H]4CC(=O)O)c(F)c3)C(C)C2)c(Cl)cn1 (stereo partly drawn) [Example 111, 2-((2S,3S,4R)-1-(4-(((3,4-trans)-1-(5-Chloro-2-methoxypyridin-4-yl)-3-methylpiperidin-4-yl)oxy)-2-fluorophenyl)-4-methoxy-3-methylpyrrolidin-2-yl)acetic acid] | – | 110
12 | COc1ccc(F)c(N2CCC(Oc3ccc(N4C[C@H](OC)C[C@@H]4CC(=O)O)cc3)CC2C)c1 (single isomer, unassigned) [Example 13, Isomer 1, HCl] | – | 710
13 | COc1ccc(F)c(N2CC[C@@H](COc3ccc(N4C[C@H](C(F)(F)F)C[C@@H]4CC(=O)O)cc3)C2)c1 [Example 11, 2-((2R,4R)-1-(4-(((R)-1-(2-Fluoro-5-methoxyphenyl)pyrrolidin-3-yl)methoxy)phenyl)-4-(trifluoromethyl)pyrrolidin-2-yl)acetic acid, HCl] | – | 630
14 | CCO[C@@H]1C[C@H](CC(=O)O)N(c2ccc(OC3CCN(c4cc(OC)ccc4F)CC3)cc2)C1 [Example 2, 2-((2R,4R)-4-Ethoxy-1-(4-((1-(2-fluoro-5-methoxyphenyl)piperidin-4-yl)oxy)phenyl)pyrrolidin-2-yl)acetic acid, HCl] | – | 120
15 | COc1cc(N2CCC(Oc3ccc(N4C[C@H](OC)CC4CC(=O)O)c(F)c3F)C(C)C2)c(Cl)cn1 (single isomer, unassigned) [Example 141, Isomer 1] | – | 410
16 | CCOc1ccc(F)c(N2CCC(Oc3ccc(N4C[C@H](OC)[C@@H](C5CCC5)[C@@H]4CC(=O)O)cc3)CC2)c1 [Example 92, 2-((2S,3S,4R)-3-Cyclobutyl-1-(4-((1-(5-ethoxy-2-fluorophenyl)piperidin-4-yl)oxy)phenyl)-4-methoxypyrrolidin-2-yl)acetic acid, TFA] | – | 3700
17 | CCOc1ccc(F)c(N2CCC(Oc3ccc(N4C[C@H](c5ccccc5)C[C@@H]4CC(=O)O)cc3)C(C)C2)c1 (stereo partly drawn) [Example 41, 2-((2R,4S)-1-(4-(((3,4-trans)-1-(5-Ethoxy-2-fluorophenyl)-3-methylpiperidin-4-yl)oxy)phenyl)-4-phenylpyrrolidin-2-yl)acetic acid, HCl] | – | 230

Further lines, results first:

Row | EC50 (human GPR40 [1]) [nM] | EC50 (human GPR40 [2]) [nM] | SMILES
18 | 17 | 330 | CCOc1ccc(F)c(N2CCC(Oc3ccc(N4C[C@H](C(F)(F)F)C[C@@H]4CC(=O)O)cc3)C(CC(C)C)C2)c1 (single isomer, unassigned) [Example 35, Isomer 2, HCl]
19 | 1600 | 1620 | COc1cc(N2CCC(Oc3ccc(N4C[C@H](O)[C@@H](C)[C@@H]4CC(=O)O)c(F)c3)C(C)C2)c(Cl)cn1 (stereo partly drawn) [Example 115, 2-((2S,3S,4R)-1-(4-(((3,4-trans)-1-(5-Chloro-2-methoxypyridin-4-yl)-3-methylpiperidin-4-yl)oxy)-2-fluorophenyl)-4-hydroxy-3-methylpyrrolidin-2-yl)acetic acid]
20 | 10 | 33 | COc1ccc(C2CCCC2(C)C)c(N2CCC(Oc3ccc(N4C[C@H](OC)C[C@@H]4CC(=O)O)cc3)CC2)c1 (single isomer, unassigned) [Example 65, Isomer 1]
21 | 2500 | 1400 | COc1ccc(F)c(N2CCC(Oc3ccc(N4CCCC4CC(=O)O)cc3)CC2)c1 (single isomer, unassigned) [Example 48, Isomer 2, 2-(1-(4-((1-(2-Fluoro-5-methoxyphenyl)piperidin-4-yl)oxy)phenyl)pyrrolidin-2-yl)acetic acid]
22 | 42 | 140 | CCOc1ccc(F)c(N2CCC(Oc3ccc(N4C[C@H](OC)[C@@H](C)[C@@H]4CC(=O)O)cc3)CC2)c1 [Example 121, 2-((2S,3S,4R)-1-(4-((1-(5-Ethoxy-2-fluorophenyl)piperidin-4-yl)oxy)phenyl)-4-methoxy-3-methylpyrrolidin-2-yl)acetic acid, TFA]
23 | 100 | 102 | COc1cc(N2CCC(Oc3ccc(N4C[C@H](OC)[C@@H](C)[C@@H]4CC(=O)O)cc3F)C(C)C2)c(Cl)cn1 (stereo partly drawn) [Example 98, 2-((2S,3S,4R)-1-(4-(((3,4-trans)-1-(5-Chloro-2-methoxypyridin-4-yl)-3-methylpiperidin-4-yl)oxy)-3-fluorophenyl)-4-methoxy-3-methylpyrrolidin-2-yl)acetic acid]
24 | 240 | 170 | COc1ccc(F)c(N2CCC(Oc3ccc(N4C[C@H](OC)C[C@@H]4CC(=O)O)cc3)CC2)c1 [Example 4, 2-((2R,4R)-1-(4-((1-(2-Fluoro-5-methoxyphenyl)piperidin-4-yl)oxy)phenyl)-4-methoxypyrrolidin-2-yl)acetic acid, HCl]
25 | – | 4100 | COc1ccc(F)c(N2CCC(Oc3ccc(N4CCCC4CC(=O)O)cc3)CC2)c1 (single isomer, unassigned) [Example 48, Isomer 1, 2-(1-(4-((1-(2-Fluoro-5-methoxyphenyl)piperidin-4-yl)oxy)phenyl)pyrrolidin-2-yl)acetic acid]
26 | – | 110 | COc1cc(N2CCC(Oc3ccc(N4C[C@H](OC)[C@@H](C)[C@@H]4CC(=O)O)cn3)C(C)C2)c(C2CCCC2(C)C)cn1 (single isomer, unassigned) [Example 150, Isomer 2, HCl]
27 | – | 64 | COc1ccc(F)c(N2CCC(Oc3ccc(N4C[C@H](OC)C[C@@H]4CC(=O)O)cc3)C(C)C2)c1 (single isomer, unassigned) [Example 17, Isomer 2]
28 | – | 330 | COc1cc(N2CCC(Oc3ccc(N4C[C@H](C(F)(F)F)C[C@@H]4CC(=O)O)cc3)C(F)C2)c(Cl)cn1 (single isomer, unassigned) [Example 28, Isomer 1, HCl]
29 | – | 110 | COc1cc(N2CCC(Oc3ccc(N4CC[C@@H](C)[C@@H]4CC(=O)O)cc3)C(C)C2)c(Cl)cn1 (stereo partly drawn) [Example 154, 2-((2S,3R)-1-(4-(((3,4-trans)-1-(5-Chloro-2-methoxypyridin-4-yl)-3-methylpiperidin-4-yl)oxy)phenyl)-3-methylpyrrolidin-2-yl)acetic acid, TFA]

From patent US9714231B2, “Pyrrolidine GPR40 modulators” (BRISTOL-MYERS SQUIBB COMPANY, priority 2012, dated 2017)
